Non-standard residues stand in square brackets, D forms with d. Residues, ends and D or L forms follow the SMILES beside them. pGlu = O=C1CC[C@@H](C(=O)O)N1; Thz = O=C(O)[C@@H]1CSCN1
How the values were obtained:
[1] = akkermansia muciniphila, 12 h, 2 µM
Description: The drug is tested on Akkermansia muciniphila strain: ATCC BAA-835 for biotransformation. The drug concentrations were measured before and after a 12-h incubation by liquid-chromatography-coupled mass spectrometry (LC–MS)

[2] = The drug is tested on Bacteroides fragilis strain: ATCC43859 for biotransformation. The drug concentrations were measured before and after a 12-h incubation by liquid-chromatography-coupled mass spectrometry (LC–MS); details: 2 µM
[3] = The drug is tested on Collinsella intestinalis strain: DSM13280 for biotransformation. The drug concentrations were measured before and after a 12-h incubation by liquid-chromatography-coupled mass spectrometry (LC–MS); details: 2 µM
[4] = parabacteroides johnsonii, 12 h, 2 µM
Description: The drug is tested on Parabacteroides johnsonii strain: DSM18315 for biotransformation. The drug concentrations were measured before and after a 12-h incubation by liquid-chromatography-coupled mass spectrometry (LC–MS)

[5] = The drug is tested on Alistipes indistinctus strain: DSM22520 for biotransformation. The drug concentrations were measured before and after a 12-h incubation by liquid-chromatography-coupled mass spectrometry (LC–MS); details: 2 µM
[6] = The drug is tested on Eggerthella lenta strain: ATCC25559 for biotransformation. The drug concentrations were measured before and after a 12-h incubation by liquid-chromatography-coupled mass spectrometry (LC–MS); details: 2 µM
[7] = victivallis vadensis, 12 h, 2 µM
Description: The drug is tested on Victivallis vadensis strain: ATCC BAA-548 for biotransformation. The drug concentrations were measured before and after a 12-h incubation by liquid-chromatography-coupled mass spectrometry (LC–MS)

| Compound | Bacterial Biotransformation [1] | Bacterial Biotransformation [2] | Bacterial Biotransformation [3] | Bacterial Biotransformation [4] | Bacterial Biotransformation [5] | Bacterial Biotransformation [6] | Bacterial Biotransformation [7] |
| --- | --- | --- | --- | --- | --- | --- | --- |
| O=P(O)(O)O.c1ccc(CN(CC2=NCCN2)c2ccccc2)cc1 [ANTAZOLINE PHOSPHATE] | Compound NOT metabolized | Compound NOT metabolized | Compound NOT metabolized |  |  |  |  |
| CC(O)(CS(=O)(=O)c1ccc(F)cc1)C(=O)Nc1ccc(C#N)c(C(F)(F)F)c1 (stereo not drawn) [BICALUTAMIDE] | Compound NOT metabolized |  | Compound NOT metabolized | Compound NOT metabolized |  |  |  |
| CCN(C(C)=O)c1cccc(-c2ccnc3c(C#N)cnn23)c1 [ZALEPLON] | Compound NOT metabolized | Compound metabolized |  |  | Compound NOT metabolized |  |  |
| O=c1n(CCCN2CCN(c3cccc(Cl)c3)CC2)nc2ccccn12 [TRAZODONE] | Compound NOT metabolized | Compound NOT metabolized | Compound NOT metabolized | Compound NOT metabolized |  | Compound NOT metabolized |  |
| C[C@@H](CO)NC(=O)[C@@H]1C=C2c3cccc4[nH]cc(c34)C[C@H]2N(C)C1.O=C(O)/C=C\C(=O)O [ERGONOVINE MALEATE] | Compound NOT metabolized | Compound metabolized |  | Compound metabolized |  |  |  |
| O=C1CC2(CCCC2)CC(=O)N1CCCCN1CCN(c2ncccn2)CC1 [BUSPIRONE] | Compound NOT metabolized | Compound NOT metabolized | Compound NOT metabolized | Compound NOT metabolized |  |  |  |
| COc1cc2nc(N3CCN(C(=O)C4CCCO4)CC3)nc(N)c2cc1OC (stereo not drawn) [TERAZOSIN] | Compound NOT metabolized | Compound NOT metabolized | Compound NOT metabolized | Compound NOT metabolized |  | Compound NOT metabolized |  |
| O=C1CC[C@@H](C(=O)N2CSC[C@H]2C(=O)O)N1 [PIDOTIMOD] ([pGlu]-[Thz]-OH) | Compound NOT metabolized | Compound metabolized | Compound NOT metabolized | Compound metabolized | Compound NOT metabolized |  |  |
| COc1cc2nc(N(C)CCCNC(=O)C3CCCO3)nc(N)c2cc1OC (stereo not drawn) [ALFUZOSIN] | Compound NOT metabolized | Compound NOT metabolized | Compound NOT metabolized |  |  |  |  |
| CCN(CC)CCNC(C(=O)OCCC(C)C)c1ccccc1.Cl.Cl (stereo not drawn) | Compound NOT metabolized |  | Compound NOT metabolized |  | Compound NOT metabolized |  | Compound NOT metabolized |
| COc1ccccc1OCC(O)CN1CCN(CC(=O)Nc2c(C)cccc2C)CC1 (stereo not drawn) [RANOLAZINE] |  | Compound NOT metabolized | Compound NOT metabolized | Compound NOT metabolized | Compound NOT metabolized |  |  |
| CCc1cccc2c3c([nH]c12)C(CC)(CC(=O)O)OCC3 (stereo not drawn) [ETODOLAC] | Compound NOT metabolized | Compound metabolized | Compound NOT metabolized | Compound NOT metabolized |  | Compound NOT metabolized |  |
| O=C(CCCN1CCC2(CC1)C(=O)NCN2c1ccccc1)c1ccc(F)cc1 [SPIPERONE] | Compound NOT metabolized | Compound NOT metabolized | Compound NOT metabolized |  | Compound NOT metabolized |  |  |
| CCCc1nn(C)c2c(=O)[nH]c(-c3cc(S(=O)(=O)N4CCN(C)CC4)ccc3OCC)nc12.O=C(O)CC(O)(CC(=O)O)C(=O)O [SILDENAFIL CITRATE] | Compound NOT metabolized | Compound NOT metabolized | Compound NOT metabolized | Compound NOT metabolized | Compound NOT metabolized |  |  |
| CN[C@H]1CC[C@@H](c2ccc(Cl)c(Cl)c2)c2ccccc21 [SERTRALINE] |  | Compound NOT metabolized | Compound NOT metabolized | Compound NOT metabolized | Compound NOT metabolized | Compound NOT metabolized |  |
| CCN1CCCC1CNC(=O)c1cc(S(N)(=O)=O)ccc1OC (stereo not drawn) [SULPIRIDE] | Compound NOT metabolized |  | Compound NOT metabolized | Compound NOT metabolized | Compound NOT metabolized | Compound NOT metabolized |  |
| CN(CCOc1ccc(CC2SC(=O)NC2=O)cc1)c1ccccn1.O=C(O)/C=C\C(=O)O (stereo not drawn) [ROSIGLITAZONE MALEATE] | Compound NOT metabolized |  | Compound NOT metabolized | Compound NOT metabolized |  |  |  |

| Compound | Bacterial Biotransformation [1] | Bacterial Biotransformation [2] | Bacterial Biotransformation [3] | Bacterial Biotransformation [4] | Bacterial Biotransformation [5] | Bacterial Biotransformation [6] | Bacterial Biotransformation [7] |
| --- | --- | --- | --- | --- | --- | --- | --- |
| CN1CC(=O)N2[C@H](c3ccc4c(c3)OCO4)c3[nH]c4ccccc4c3C[C@@H]2C1=O | Compound NOT metabolized |  | Compound NOT metabolized |  | Compound NOT metabolized |  |  |
| Cc1cn([C@H]2C[C@H](N=[N+]=[N-])[C@@H](CO)O2)c(=O)[nH]c1=O [ZIDOVUDINE] | Compound NOT metabolized |  |  | Compound metabolized | Compound NOT metabolized | Compound NOT metabolized |  |
| Br.CN1CCC[C@@H]1Cc1c[nH]c2ccc(CCS(=O)(=O)c3ccccc3)cc12 [ELETRIPTAN HYDROBROMIDE] | Compound NOT metabolized | Compound NOT metabolized | Compound NOT metabolized |  |  |  |  |
| NC(CO)(CO)CO.O=C(c1ccccc1)c1ccc2n1CCC2C(=O)O (stereo not drawn) [KETOROLAC TROMETHAMINE] |  | Compound metabolized |  | Compound NOT metabolized | Compound NOT metabolized |  |  |
| CNS(=O)(=O)Cc1ccc2[nH]cc(CCN(C)C)c2c1.O=C(O)CCC(=O)O [SUMATRIPTAN SUCCINATE] | Compound NOT metabolized |  | Compound NOT metabolized | Compound NOT metabolized | Compound NOT metabolized |  | Compound NOT metabolized |
| CCOC(=O)C1=C[C@]2(CC)CCCN3CCc4c(n1c1ccccc41)[C@@H]32 [VINPOCETINE] |  | Compound NOT metabolized | Compound NOT metabolized |  | Compound NOT metabolized | Compound NOT metabolized |  |
| CC(CN1c2ccccc2Sc2ccccc21)N(C)C (stereo not drawn) [PROMETHAZINE] | Compound NOT metabolized | Compound NOT metabolized | Compound NOT metabolized | Compound NOT metabolized |  |  |  |
| CC(=O)OCC(=O)[C@@]1(O)[C@@H](C)C[C@H]2[C@@H]3CCC4=CC(=O)C=C[C@]4(C)[C@@]3(F)[C@@H](O)C[C@@]21C [BETAMETHASONE ACETATE] | Compound NOT metabolized | Compound metabolized | Compound NOT metabolized | Compound metabolized | Compound NOT metabolized | Compound NOT metabolized |  |
| CCCc1nc2c(C)cc(-c3nc4ccccc4n3C)cc2n1Cc1ccc(-c2ccccc2C(=O)O)cc1 | Compound NOT metabolized |  |  |  | Compound NOT metabolized | Compound NOT metabolized |  |
| C[C@@H](c1ncncc1F)[C@](O)(Cn1cncn1)c1ccc(F)cc1F [VORICONAZOLE] | Compound NOT metabolized | Compound metabolized | Compound NOT metabolized | Compound NOT metabolized | Compound NOT metabolized | Compound NOT metabolized |  |
| CCOc1ccc(NC(C)=O)cc1 [PHENACETIN] | Compound NOT metabolized | Compound NOT metabolized | Compound NOT metabolized | Compound NOT metabolized | Compound NOT metabolized |  |  |
| COc1cc(C(=O)NCc2ccc(OCCN(C)C)cc2)cc(OC)c1OC [TRIMETHOBENZAMIDE] | Compound NOT metabolized | Compound NOT metabolized | Compound NOT metabolized | Compound NOT metabolized | Compound NOT metabolized |  |  |
| CCOc1ccccc1OCCN[C@H](C)Cc1ccc(OC)c(S(N)(=O)=O)c1.Cl [TAMSULOSIN HYDROCHLORIDE] | Compound NOT metabolized | Compound NOT metabolized | Compound NOT metabolized | Compound NOT metabolized | Compound NOT metabolized | Compound NOT metabolized |  |
| c1ccc2[nH]c(-c3cscn3)nc2c1 [THIABENDAZOLE] | Compound NOT metabolized | Compound NOT metabolized | Compound NOT metabolized | Compound NOT metabolized | Compound NOT metabolized | Compound NOT metabolized |  |
| Cc1ccc(S(=O)(=O)NC(=O)NN2CCCCCC2)cc1 [TOLAZAMIDE] |  | Compound metabolized | Compound NOT metabolized | Compound metabolized | Compound NOT metabolized |  |  |
| O=C1N=C([O-])NC1(c1ccccc1)c1ccccc1.[Na+] [PHENYTOIN SODIUM] |  |  |  | Compound metabolized | Compound NOT metabolized |  |  |

— ChEMBL document CHEMBL5303573, “Mapping human microbiome drug metabolism by gut bacteria and their genes” (Nature, 2019)
